Columns and labels:
Format in all cases: in vivo
Abutilon theophrasti [1] = assay: Pre-emergence test; conditions: 3 weeks after treatment
Experimental: (§1) To evaluate their herbicidal activity, compounds according to the invention are tested using a representative range of plants: ABUTH Abutilon theophrasti The pre-emergence tests involve spraying a liquid formulation of the compound onto the soil in which the seeds of the plant species mentioned above has recently been sown. The soil used in the tests is a prepared horticultural loam. The formulations used in the tests are prepared from solutions of the test compounds in acetone containing 0.4% by weight of an alkylphenol/ethylene oxide condensate available under the trade mark TRITON X-155. These acetone solutions are diluted with water and the resulting formulations applied at dosage levels corresponding to 0.025 kg, 0.100 kg or 0.400 kg of active material per hectare in a volume equivalent to 900 litres per hectare. In these tests untreated sown soil are used as controls. From 2 to 4 weeks after treatment, the tests are terminated and each pot is examined and rated according to the rating system set forth below: [table]

Galium aparine = assay: Pre-emergence test; conditions: 3 weeks after treatment
Experimental: as §1, with “GALAP Galium aparine” for “ABUTH Abutilon theophrasti”

Alopecurus myosuroides = assay: Pre-emergence test; conditions: 3 weeks after treatment
Experimental: as §1, with “ALOMY Alopecurus myosuroides” for “ABUTH Abutilon theophrasti”

Triticum aestivum [2] = assay: Pre-emergence test; conditions: 3 weeks after treatment
Experimental: as §1, with “TRZAW Triticum aestivum” for “ABUTH Abutilon theophrasti”

Abutilon theophrasti [3] = assay: Post-emergence test; conditions: 2-4 weeks after treatment
Experimental: (§2) To evaluate their herbicidal activity, compounds according to the invention are tested using a representative range of plants: ABUTH Abutilon theophrasti [table] […] These acetone solutions are diluted with water and the resulting formulations applied at dosage levels equivalent of about 0.1 to 0. 4 kg per hectare of test compound per pot. After spraying the plants are placed on greenhouse benches and are cared for in the usual manner, commensurate with conventional greenhouse practices. From 2 to 4 weeks after treatment, the seedling plants are examined and rated according to the rating system provided above.

Triticum aestivum [4] = assay: Post-emergence test; conditions: 2-4 weeks after treatment
Experimental: as §2, with “TRZAW Triticum aestivum” for “ABUTH Abutilon theophrasti”

weeds = assay: Overall weed control in pre- and post-emergence application; conditions: dose of 0.1 kg/ha
Experimental: (§3) The pre-emergence tests involve spraying a liquid formulation of the compound onto the soil in which the seeds of the plant species mentioned above has recently been sown. The soil used in the tests is a prepared horticultural loam. The formulations used in the tests are prepared from solutions of the test compounds in acetone containing 0.4% by weight of an alkylphenol/ethylene oxide condensate available under the trade mark TRITON X-155. These acetone solutions are diluted with water and the resulting formulations applied at dosage levels corresponding to 0.025 kg, 0.100 kg or 0.400 kg of active material per hectare in a volume equivalent to 900 litres per hectare. In these tests untreated sown soil are used as controls. […] These acetone solutions are diluted with water and the resulting formulations applied at dosage levels equivalent of about 0.1 to 0. 4 kg per hectare of test compound per pot. After spraying the plants are placed on greenhouse benches and are cared for in the usual manner, commensurate with conventional greenhouse practices. From 2 to 4 weeks after treatment, the seedling plants are examined and rated according to the rating system provided above.

soybeans, wheat = assay: Crop selectivity in pre- and post-emergence application; conditions: dose of 0.1 kg/ha
Experimental: as §3

Stellaria media = assay: Post-emergence test; conditions: 2-4 weeks after treatment
Experimental: as §2, with “STEME Stellaria media” for “ABUTH Abutilon theophrasti”

| SMILES | ABUTH herbicidal rating (Abutilon theophrasti [1]; 0.025 kg/ha) | ABUTH herbicidal rating (Abutilon theophrasti [1]; 0.100 kg/ha) | ABUTH herbicidal rating (Abutilon theophrasti [1]; 0.400 kg/ha) | GALAP herbicidal rating (Galium aparine; 0.025 kg/ha) | GALAP herbicidal rating (Galium aparine; 0.100 kg/ha) | GALAP herbicidal rating (Galium aparine; 0.400 kg/ha) | ALOMY herbicidal rating (Alopecurus myosuroides; 0.025 kg/ha) | ALOMY herbicidal rating (Alopecurus myosuroides; 0.100 kg/ha) | ALOMY herbicidal rating (Alopecurus myosuroides; 0.400 kg/ha) | TRZAW herbicidal rating (Triticum aestivum [2]; 0.025 kg/ha) | TRZAW herbicidal rating (Triticum aestivum [2]; 0.100 kg/ha) | TRZAW herbicidal rating (Triticum aestivum [2]; 0.400 kg/ha) | ABUTH herbicidal rating (Abutilon theophrasti [3]; 0.1 kg/ha) | ABUTH herbicidal rating (Abutilon theophrasti [3]; 0.4 kg/ha) | TRZAW herbicidal rating (Triticum aestivum [4]; 0.1 kg/ha) | TRZAW herbicidal rating (Triticum aestivum [4]; 0.4 kg/ha) | overall levels of weed control (weeds) | tolerance in soybeans and wheat (soybeans, wheat) | STEME herbicidal rating (Stellaria media; 0.1 kg/ha) | STEME herbicidal rating (Stellaria media; 0.4 kg/ha) |
| --- | --- | --- | --- | --- | --- | --- | --- | --- | --- | --- | --- | --- | --- | --- | --- | --- | --- | --- | --- | --- |
| Cn1nc(C(F)(F)F)cc1Oc1cc(C#N)cc(-c2cc(C(F)(F)F)nn2C)n1 [Example 3, 4-Cyano-2-(1-methyl-3-trifluoromethylpyrazol-5-yloxy)-6-(1-methyl-3-trifluoromethylpyrazol-5-yl)pyridine] | 1 (1 - Trace effect) | 5 (5 - Definite injury) | 8 (8 - Approaching complete kill) | 1 (1 - Trace effect) | 4 (4 - Injury) | 8 (8 - Approaching complete kill) | 2 (2 - Slight effect) | 3 (3 - Moderate effect) | 5 (5 - Definite injury) | 0 (0 - No effect) | 0 (0 - No effect) | 4 (4 - Injury) | 4 (4 - Injury) | 5 (5 - Definite injury) | 3 (3 - Moderate effect) | 4 (4 - Injury) | good overall levels of weed control | well tolerated | – | – |
| Cc1cc(Oc2cccc(C(F)(F)F)c2)nc(-c2cc(C(F)(F)F)nn2C)c1 [Example 63] | – | 0 (0 - No effect) | 2 (2 - Slight effect) | 0 (0 - No effect) | 0 (0 - No effect) | 1 (1 - Trace effect) | 0 (0 - No effect) | 1 (1 - Trace effect) | 5 (5 - Definite injury) | 0 (0 - No effect) | 0 (0 - No effect) | 0 (0 - No effect) | 4 (4 - Injury) | 4 (4 - Injury) | 3 (3 - Moderate effect) | 3 (3 - Moderate effect) | – | – | – | – |
| Cc1cnc(-c2cc(C(F)(F)F)nn2C)nc1Oc1cc(C(F)(F)F)nn1C [Example 4, 2-(1-Methyl-3-trifluoromethylpyrazol-5-yl)-6-(1-methyl-3-trifluoromethylpyrazol-5-yloxy)-5-methylpyrimidine] | 4 (4 - Injury) | 7 (7 - Good herbicidal effect) | 9 (9 - Complete kill) | 1 (1 - Trace effect) | – | 8 (8 - Approaching complete kill) | 2 (2 - Slight effect) | 6 (6 - Herbicidal effect) | 8 (8 - Approaching complete kill) | 1 (1 - Trace effect) | 2 (2 - Slight effect) | 4 (4 - Injury) | 6 (6 - Herbicidal effect) | 7 (7 - Good herbicidal effect) | 3 (3 - Moderate effect) | 5 (5 - Definite injury) | good overall levels of weed control | well tolerated | 5 (5 - Definite injury) | 6 (6 - Herbicidal effect) |

From US6528456B2, “Herbicidal 2-pyrazolyl-6-aryloxypyri(mi)dines” (BASF Aktiengesellschaft, priority 1999, dated 2003)
